# Experimental data reported in the supplement of paper PMC10307832.
# Experiments:
# Assay in all cases: relative viability (nuclei count vs DMSO), 5 days (fraction); higher = more cells survive
# [1] = compound: CCn1c(-c2nonc2N)nc2c(C#CC(C)(C)O)ncc(OC[C@H]3CCCNC3)c21 + N=C(N)NC(=N)NCCc1ccccc1 [Phenformin] (partner 250 µM)
# Summary of the method: (§1)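 Lung cancer cell lines in 1536-well plates were dosed by pin tool the day after seeding, either with one drug alone or with a fixed anchor-drug dose plus five library-drug doses (not always all listed) in √10 steps. After 5 days, cells were fixed and their nuclei stained in one step (final 0.05% Triton X-100, 1% formaldehyde, 1 ug/ml Hoechst), then counted on 4× images. Relative viability is the nuclei count in treated wells divided by that in vehicle wells. Values are medians of duplicate plates.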
# BAM7 + Pictilisib = compound: CCOC1=CC=CC=C1N=NC2=C(NN(C2=O)C3=NC(=CS3)C4=CC=CC=C4)C [BAM7] + CS(=O)(=O)N1CCN(Cc2cc3nc(-c4cccc5[nH]ncc45)nc(N4CCOCC4)c3s2)CC1 [Pictilisib] (partner 1 µM)
# Summary of the method: as §1
# BAM7 + Trametinib = compound: CCOC1=CC=CC=C1N=NC2=C(NN(C2=O)C3=NC(=CS3)C4=CC=CC=C4)C [BAM7] + CC(=O)Nc1cccc(-n2c(=O)n(C3CC3)c(=O)c3c(Nc4ccc(I)cc4F)n(C)c(=O)c(C)c32)c1 [Trametinib] (partner 0.02 µM)
# Summary of the method: as §1
# BAM7 + AZD7762 = compound: CCOC1=CC=CC=C1N=NC2=C(NN(C2=O)C3=NC(=CS3)C4=CC=CC=C4)C [BAM7] + NC(=O)Nc1cc(-c2cccc(F)c2)sc1C(=O)N[C@H]1CCCNC1 [AZD7762] (partner 0.2 µM)
# Summary of the method: as §1
Cell Line,relative viability ([1]; first compound 0.01 µM),relative viability ([1]; first compound 0.03162 µM),relative viability ([1]; first compound 0.1 µM),relative viability ([1]; first compound 0.3162 µM),relative viability ([1]; first compound 1 µM),relative viability (BAM7 + Pictilisib; first compound 0.5 µM),relative viability (BAM7 + Pictilisib; first compound 5 µM),relative viability (BAM7 + Pictilisib; first compound 15.81 µM),relative viability (BAM7 + Pictilisib; first compound 50 µM),relative viability (BAM7 + Trametinib; first compound 0.5 µM),relative viability (BAM7 + Trametinib; first compound 5 µM),relative viability (BAM7 + Trametinib; first compound 15.81 µM),relative viability (BAM7 + Trametinib; first compound 50 µM),relative viability (BAM7 + AZD7762; first compound 0.5 µM),relative viability (BAM7 + AZD7762; first compound 5 µM),relative viability (BAM7 + AZD7762; first compound 15.81 µM),relative viability (BAM7 + AZD7762; first compound 50 µM)
LOU-NH91,0.683,0.566,0.686,0.607,0.635,0.54,0.555,0.524,0.532,0.794,0.788,0.804,0.805,0.796,0.794,0.75,0.793
NCI-H2405,0.402,0.385,0.295,0.355,0.344,0.438,0.557,0.449,0.538,0.596,0.706,0.477,0.715,0.832,0.862,0.811,0.758
LCLC-97TM1,0.375,0.49,0.444,0.435,0.427,0.218,0.197,0.172,0.2,0.202,0.199,–,0.224,0.222,0.172,0.29,0.252
NCI-H596,0.74,0.7,0.727,0.744,0.761,0.372,0.455,0.399,0.35,0.869,0.838,0.754,0.736,1.27,1.12,0.92,1.05
